Measured values: patent US20230172966A1, “COMPOSITION FOR THE PREVENTION AND TREATMENT OF FOLATE AND/OR VITAMIN B12 DEFICIENCY CONDITIONS, PARTICULARLY HYPERHOMOCYSTEINEMIA” (INPHA RESEARCH S.R.L., priority 2020, published 2023)

What was measured:
[1] = Gastric Simulated Fluid (GSF) Test; type: physicochemical
Procedure: Gastric Simulated Fluid (GSF) Test.
For all the experiments, physiological gastric conditions were reproduced taking into account the volume of gastric fluid on an empty stomach (35-40 mL) (Mudie D M et al. Quantification of gastrointestinal liquid volumes and distribution following a 240 mL dose of water in the fasted state. Mol Pharm. 2014 Sep. 2; 11(9):3039-47) and the fact that in the stomach, the salt concentration is different from that of blood plasma (0.25% vs 0.9%) (Sandra Klein. The Use of Biorelevant Dissolution Media to Forecast the In Vivo Performance of a Drug. AAPS J. 2010 September; 12(3): 397-406).
The effect of the alkalizing agent on gastric pH was simulated in vitro by preparing a 0.2% saline solution of NaCl and bringing the pH of the solution to around 1.2-2 with 37% hydrochloric acid diluted 1:5.
GSF was prepared using the components in table 1, all tests were performed simulating body temperature (37° C.) and performed in triplicate.
400 ml of GSF was stirred with magnetic stirrer and settled at 37° C. and the three-point digital pH meter was applied. 40 mg of Folic Acid was added to this solution.
The bright orange dispersion was stirred for 5 minutes at 200 rpm and then the stirring was stopped.
The same experiment was repeated adding 30 mg of Zinc Oxide to the same amount of folic acid. […] Such a pH was maintained in the range 5.0-5.5 also by simulating physiological acid secretion, combining 2 ml of 0.1 M HCl every 15 minutes for a total of 60 minutes.

[2] = non-ionized carboxylic acid form, in contact with gastric fluid (pH 1.5-2.0 empty, 3.5-4.5 full stomach); cited from earlier work

## [O]=[Zn] [Zinc Oxide]
[1]; 30 mg Zinc Oxide + 40 mg folic acid in 400 ml GSF (initial pH 1.2-2), 37° C., after 5 minutes at 200 rpm
  pH recorded in GSF after stirring: 5.2
[1]; 30 mg Zinc Oxide + 40 mg folic acid in 400 ml GSF, 2 ml of 0.1 M HCl every 15 minutes for a total of 60 minutes
  pH maintained under simulated physiological acid secretion: 5.0-5.5

## Nc1nc2ncc(CNc3ccc(C(=O)N[C@@H](CCC(=O)O)C(=O)O)cc3)nc2c(=O)[nH]1 [folic acid, pteroyl(mono)-glutamic acid]
[2]
  water solubility: < 10 µg/mL
[1]; 40 mg Folic Acid alone in 400 ml GSF pH 1.2-2, 37° C., stirred 5 minutes at 200 rpm, observed after 10 minutes
  observation of folic acid solubility/precipitation in GSF: complete precipitation
[1]; 40 mg folic acid + 30 mg Zinc Oxide in 400 ml GSF, 37° C., stirred 5 minutes at 200 rpm
  observation of folic acid dissolution in GSF with Zinc Oxide: translucent orange solution in the absence of precipitation
